Laboratory results reported in patent publication US9469650B2, “Melampomagnolide B derivatives” (BOARD OF TRUSTEES OF THE UNIVERSITY OF ARKANSAS, priority 2013, dated 2016).

What was measured:
HCT-116 = test: panel of 60 human tumor cell lines, growth inhibition (Colon Cancer); settings: for GI50: HCT-116, HCT-116
MOLT-4 = test: panel of 60 human tumor cell lines, growth inhibition (Leukemia)
786-0 = test: panel of 60 human tumor cell lines, growth inhibition (Renal Cancer)
SNB-19 = test: panel of 60 human tumor cell lines, growth inhibition (CNS Cancer)
HS 578T = test: panel of 60 human tumor cell lines, growth inhibition (Breast Cancer); settings: for Percent Growth: HS 578T
SR = test: panel of 60 human tumor cell lines, growth inhibition (Leukemia)
T-47D = test: panel of 60 human tumor cell lines, growth inhibition (Breast Cancer); settings: for Percent Growth: T-47D
UO-31 = test: panel of 60 human tumor cell lines, growth inhibition (Renal Cancer)
A498 = test: as above
TK-10 = test: as above; settings: for GI50: TK-10, TK-10; for Percent Growth: TK-10

SMILES: C=C1C(=O)O[C@H]2[C@H]1CC/C(COC(=O)NCCc1ccccn1)=C\CC[C@@]1(C)O[C@@H]21 [JVM 61, ((1aR,7aS,10aS,10bS,E)-1a-methyl-8-methylene-9-oxo-1a,2,3,6,7,7a,8,9,10a,10b-decahydrooxireno[2′,3′:9,10]cyclodeca[1,2-b]furan-5-yl)methyl-(2-(pyridin-2-yl)ethyl)carbamate]
- Percent Growth (HCT-116; HCT-116, Log10 Concentration −8.0): 99%
- GI50 (HCT-116; Homo sapiens): 1.59 µM
- GI50 (HCT-116; Homo sapiens, 5-dose assay): 1.89 µM
- CC50 (HCT-116; Homo sapiens, HCT-116, read-out: LC50): 17.9 µM
- IC (TGI) (HCT-116; Homo sapiens, HCT-116, read-out: TGI): 5.12 µM
- GI50 (MOLT-4; Homo sapiens, MOLT-4): 5.54 µM
- CC50 (MOLT-4; Homo sapiens, MOLT-4, read-out: LC50): > 100 µM
- IC (TGI) (MOLT-4; Homo sapiens, MOLT-4, read-out: TGI): 25 µM
- Percent Growth (MOLT-4; MOLT-4, Log10 Concentration −4.0): −47%
- Percent Growth (MOLT-4; MOLT-4, Log10 Concentration −5.0): 31%
- Percent Growth (MOLT-4; MOLT-4, Log10 Concentration −6.0): 105%
- Percent Growth (MOLT-4; MOLT-4, Log10 Concentration −7.0): 106%
- Percent Growth (MOLT-4; MOLT-4, Log10 Concentration −8.0): 106%
- Percent Growth (786-0; 786-0, Log10 Concentration −4.0): −93%
- Percent Growth (786-0; 786-0, Log10 Concentration −5.0): 15%
- Percent Growth (786-0; 786-0, Log10 Concentration −6.0): 96%
- Percent Growth (786-0; 786-0, Log10 Concentration −7.0): 101%
- Percent Growth (786-0; 786-0, Log10 Concentration −8.0): 101%
- GI50 (786-0; Homo sapiens, 786-0): 3.7 µM
- CC50 (786-0; Homo sapiens, 786-0, read-out: LC50): 39.8 µM
- IC (TGI) (786-0; Homo sapiens, 786-0, read-out: TGI): 13.8 µM
- GI50 (SNB-19; Homo sapiens, SNB-19): 27.7 µM
- CC50 (SNB-19; Homo sapiens, SNB-19, read-out: LC50): > 100 µM
- IC (TGI) (SNB-19; Homo sapiens, SNB-19, read-out: TGI): 160 µM
- Percent Growth (SNB-19; SNB-19, Log10 Concentration −4.0): 3%
- Percent Growth (SNB-19; SNB-19, Log10 Concentration −5.0): 88%
- Percent Growth (SNB-19; SNB-19, Log10 Concentration −6.0): 94%
- Percent Growth (SNB-19; SNB-19, Log10 Concentration −7.0): 93%
- Percent Growth (SNB-19; SNB-19, Log10 Concentration −8.0): 97%
- Percent Growth (HS 578T; Log10 Concentration −4.0): −25%
- Percent Growth (HS 578T; Log10 Concentration −5.0): 28%
- Percent Growth (HS 578T; Log10 Concentration −6.0): 94%
- Percent Growth (HS 578T; Log10 Concentration −7.0): 96%
- Percent Growth (HS 578T; Log10 Concentration −8.0): 98%
- GI50 (HS 578T; Homo sapiens, Hs-578T): 4.66 µM
- CC50 (HS 578T; Homo sapiens, Hs-578T, read-out: LC50): ≥ 100 µM
- IC (TGI) (HS 578T; Homo sapiens, Hs-578T, read-out: TGI): 33.9 µM
- GI50 (SR; Homo sapiens): 4.1 µM
- CC50 (SR; Homo sapiens, read-out: LC50): > 100 µM
- IC (TGI) (SR; Homo sapiens, read-out: TGI): 24.6 µM
- Percent Growth (SR; Log10 Concentration −4.0): −34%
- Percent Growth (SR; Log10 Concentration −5.0): 22%
- Percent Growth (SR; Log10 Concentration −6.0): 95%
- Percent Growth (SR; Log10 Concentration −7.0): 100%
- Percent Growth (SR; Log10 Concentration −8.0): 99%
- GI50 (T-47D; Homo sapiens, T47D): 6.19 µM
- CC50 (T-47D; Homo sapiens, T47D, read-out: LC50): > 100 µM
- IC (TGI) (T-47D; Homo sapiens, T47D, read-out: TGI): 25 µM
- Percent Growth (T-47D; Log10 Concentration −4.0): −43%
- Percent Growth (T-47D; Log10 Concentration −5.0): 35%
- Percent Growth (T-47D; Log10 Concentration −6.0): 106%
- Percent Growth (T-47D; Log10 Concentration −7.0): 104%
- Percent Growth (T-47D; Log10 Concentration −8.0): 98%
- GI50 (UO-31; Homo sapiens, UO-31): 6.38 µM
- CC50 (UO-31; Homo sapiens, UO-31, read-out: LC50): 51.3 µM
- IC (TGI) (UO-31; Homo sapiens, UO-31, read-out: TGI): 20.8 µM
- Percent Growth (UO-31; UO-31, Log10 Concentration −4.0): −87%
- Percent Growth (UO-31; UO-31, Log10 Concentration −5.0): 40%
- Percent Growth (UO-31; UO-31, Log10 Concentration −6.0): 89%
- Percent Growth (UO-31; UO-31, Log10 Concentration −7.0): 93%
- Percent Growth (UO-31; UO-31, Log10 Concentration −8.0): 93%
- Percent Growth (A498; A498, Log10 Concentration −4.0): −97%
- Percent Growth (A498; A498, Log10 Concentration −5.0): 55%
- Percent Growth (A498; A498, Log10 Concentration −6.0): 87%
- Percent Growth (A498; A498, Log10 Concentration −8.0): 87%
- GI50 (A498; Homo sapiens, A498): 16.8 µM
- CC50 (A498; Homo sapiens, A498, read-out: LC50): 49.1 µM
- IC (TGI) (A498; Homo sapiens, A498, read-out: TGI): 25.1 µM
- GI50 (TK-10; Homo sapiens): 3.13 µM
- GI50 (TK-10; Homo sapiens, 5-dose assay): 3.78 µM
- CC50 (TK-10; Homo sapiens, TK-10, read-out: LC50): 37.5 µM
- IC (TGI) (TK-10; Homo sapiens, TK-10, read-out: TGI): 12.9 µM
- Percent Growth (TK-10; Log10 Concentration −4.0): −96%
- Percent Growth (TK-10; Log10 Concentration −5.0): 12%
- Percent Growth (TK-10; Log10 Concentration −6.0): 102%
- Percent Growth (TK-10; Log10 Concentration −7.0): 104%
- Percent Growth (TK-10; Log10 Concentration −8.0): 101%
